This test deals with T1, active p38 alpha enzyme (Upstate Biotechnology) (Homo sapiens, UniProt Q16539).
T1 construct: purchased Upstate Biotechnology
Nature of the test: p38α biochemical assay (ATP turnover, luminescent detection, Cambrex PKlight). As to conditions: p38α biochemical assay, Table 1 Biological Activity. An outline of the steps:
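Active human p38α was incubated with full-length MapkapK2 protein as substrate and 1.4 uM ATP (final) for 2 hours at 30C. Buffer: 200 mM Tris, 100 mM MgCl2, 1.5 mM EGTA, 4 mM CaCl2, 20 mM MOPS, 1 mM EDTA, 1% glycerol, 0.1% β-mercaptoethanol, 1 mg/ml BSA. Total ATP turnover read by luminescence.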

T1 sequence (Q16539 whole entry): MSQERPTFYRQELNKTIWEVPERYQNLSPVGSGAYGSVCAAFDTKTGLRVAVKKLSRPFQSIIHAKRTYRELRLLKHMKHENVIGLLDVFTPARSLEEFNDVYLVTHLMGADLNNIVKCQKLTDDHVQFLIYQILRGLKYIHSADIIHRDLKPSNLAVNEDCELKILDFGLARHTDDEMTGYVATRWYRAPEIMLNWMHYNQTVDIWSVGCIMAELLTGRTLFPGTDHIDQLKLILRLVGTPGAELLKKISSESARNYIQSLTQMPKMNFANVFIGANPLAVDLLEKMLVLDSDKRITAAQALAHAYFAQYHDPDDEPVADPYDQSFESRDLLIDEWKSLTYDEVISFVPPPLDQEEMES

`COc1ccc(O)c(C(=O)NCc2nc(-c3ccc(F)cc3)c(-c3nc(C(=O)NC(C)C)cs3)o2)c1` [Example 187] yielded a concentration for half-maximal inhibition (IC50) of more than 1 µM. `COc1ccc(C(=O)NCc2nc(-c3ccc(F)cc3)c(-c3nc(C(=O)NC(C)C)cs3)o2)c(O)c1` [Example 188] registered an IC50 of more than 1 µM. Compound `COc1ccc(C(=O)NCc2nc(-c3ccc(F)cc3)c(-c3nc(C(=O)NC(C)C)cs3)o2)cc1O` [Example 189] had an IC50 of more than 1 µM. Regarding `CC(C)NC(=O)c1csc(-c2oc(CNC(=O)c3cc(O)c(O)c(O)c3)nc2-c2ccc(F)cc2)n1` [Example 190], the 50% inhibitory concentration (IC50) was not above 1 µM. Compound `CC(C)NC(=O)c1csc(-c2oc(CNC(=O)Cc3ccc(O)c(F)c3)nc2-c2ccc(F)cc2)n1` [Example 191] registered a half-inhibitory concentration (IC50) not above 1 µM.

The compound `Cc1cc(C(=O)NCc2nc(-c3ccc(F)cc3)c(-c3nc(C(=O)NC(C)C)cs3)o2)cc(Cl)n1` [Example 192] showed an IC50 of more than 1 µM. Take `CC(C)NC(=O)c1csc(-c2oc(CNC(=O)Cc3c(F)cccc3F)nc2-c2ccc(F)cc2)n1` [Example 193]: the 50% inhibitory concentration (IC50) was not above 1 µM.

Take `CC(C)NC(=O)c1csc(-c2oc(CNC(=O)c3cccc4ccccc34)nc2-c2ccc(F)cc2)n1` [Example 194]: the 50% inhibitory concentration (IC50) is not above 1 µM. `CC(C)NC(=O)c1csc(-c2oc(CNC(=O)c3ccc(Cl)cc3O)nc2-c2ccc(F)cc2)n1` [Example 195]: the IC50 is more than 1 µM. `CC(C)NC(=O)c1csc(-c2oc(CNC(=O)c3cc(Cl)ccc3O)nc2-c2ccc(F)cc2)n1` [Example 196]: the 50% inhibitory concentration (IC50) is more than 1 µM. As for `CC(C)NC(=O)c1csc(-c2oc(CNC(=O)c3ccc4ncccc4c3)nc2-c2ccc(F)cc2)n1` [Example 197], the figure is not above 1 µM.

Compound `CC(C)NC(=O)c1csc(-c2oc(CNC(=O)c3cnc(O)c(Cl)c3)nc2-c2ccc(F)cc2)n1` [Example 198] showed an IC50 not above 1 µM. The compound `CC(C)NC(=O)c1csc(-c2oc(CNC(=O)c3ccc(F)cc3Cl)nc2-c2ccc(F)cc2)n1` [Example 199] yielded an IC50 not above 1 µM. Consider `CC(C)NC(=O)c1csc(-c2oc(CNC(=O)c3c(F)cccc3Cl)nc2-c2ccc(F)cc2)n1` [Example 200], for which the half-maximal inhibitory concentration (IC50) is not above 1 µM. `CC(C)NC(=O)c1csc(-c2oc(CNC(=O)CNC(=O)OC(C)(C)C)nc2-c2ccc(F)cc2)n1` [Example 201] displayed a concentration for half-maximal inhibition (IC50) of more than 1 µM. For `Cc1c(C(=O)NCc2nc(-c3ccc(F)cc3)c(-c3nc(C(=O)NC(C)C)cs3)o2)oc2ccccc12` [Example 202], the IC50 is more than 1 µM. As for `CC(C)NC(=O)c1csc(-c2oc(CNC(=O)CC3Cc4ccccc4C3)nc2-c2ccc(F)cc2)n1` [Example 203], the figure is more than 1 µM. For the compound `CC(C)NC(=O)c1csc(-c2oc(CNC(=O)C3CCc4ccccc4C3)nc2-c2ccc(F)cc2)n1` (stereo not drawn) [Example 204], the half-maximal inhibitory concentration (IC50) is more than 1 µM.

`COc1ccccc1/C=C/C(=O)NCc1nc(-c2ccc(F)cc2)c(-c2nc(C(=O)NC(C)C)cs2)o1` [Example 205] returned an IC50 of more than 1 µM. As for `CC(C)NC(=O)c1csc(-c2oc(CNC(=O)c3csc4ccccc34)nc2-c2ccc(F)cc2)n1` [Example 206], the figure is more than 1 µM. The result for `CC(C)NC(=O)c1csc(-c2oc(CNC(=O)c3cc4ccccc4s3)nc2-c2ccc(F)cc2)n1` [Example 207] reads not above 1 µM; that for `CCCCc1ccc(C(=O)NCc2nc(-c3ccc(F)cc3)c(-c3nc(C(=O)NC(C)C)cs3)o2)cc1` [Example 208], more than 1 µM.

The compound `CC(C)NC(=O)c1csc(-c2oc(CNC(=O)c3ccc(C(C)(C)C)cc3)nc2-c2ccc(F)cc2)n1` [Example 209] gave an IC50 of more than 1 µM. With `CC(C)NC(=O)c1csc(-c2oc(CNC(=O)c3ccc(N(C)C=O)cc3)nc2-c2ccc(F)cc2)n1` [Example 210], the half-maximal inhibitory concentration (IC50) is more than 1 µM. `CC(=O)Nc1cccc(C(=O)NCc2nc(-c3ccc(F)cc3)c(-c3nc(C(=O)NC(C)C)cs3)o2)c1` [Example 211] had a half-maximal inhibitory concentration (IC50) of more than 1 µM.

As to `CC(C)NC(=O)c1csc(-c2oc(CNC(=O)COc3ccccc3C=O)nc2-c2ccc(F)cc2)n1` [Example 212], the half-maximal inhibitory concentration (IC50) was more than 1 µM. In turn, `CC(=O)Oc1ccc(C(=O)NCc2nc(-c3ccc(F)cc3)c(-c3nc(C(=O)NC(C)C)cs3)o2)cc1` [Example 213] yielded an IC50 of more than 1 µM. `COC(=O)c1ccc(C(=O)NCc2nc(-c3ccc(F)cc3)c(-c3nc(C(=O)NC(C)C)cs3)o2)cc1` [Example 214] gave an IC50 of more than 1 µM.

Compound `CC(=O)Oc1cccc(C(=O)NCc2nc(-c3ccc(F)cc3)c(-c3nc(C(=O)NC(C)C)cs3)o2)c1` [Example 215] yielded a 50% inhibitory concentration (IC50) of more than 1 µM. As for `CC(=O)Oc1ccccc1C(=O)NCc1nc(-c2ccc(F)cc2)c(-c2nc(C(=O)NC(C)C)cs2)o1` [Example 216], the figure is more than 1 µM; as for `CC(C)NC(=O)c1csc(-c2oc(CNC(=O)Cc3ccc4c(c3)OCO4)nc2-c2ccc(F)cc2)n1` [Example 217], more than 1 µM; as for `CCCOc1ccc(C(=O)NCc2nc(-c3ccc(F)cc3)c(-c3nc(C(=O)NC(C)C)cs3)o2)cc1` [Example 218], more than 1 µM.

Regarding `CC(C)NC(=O)c1csc(-c2oc(CNC(=O)c3ccc(OC(C)C)cc3)nc2-c2ccc(F)cc2)n1` [Example 219], the concentration for half-maximal inhibition (IC50) is more than 1 µM. `Cc1cccc([N+](=O)[O-])c1C(=O)NCc1nc(-c2ccc(F)cc2)c(-c2nc(C(=O)NC(C)C)cs2)o1` [Example 220]: the IC50 is not above 1 µM.

Consider `Cc1cccc(C(=O)NCc2nc(-c3ccc(F)cc3)c(-c3nc(C(=O)NC(C)C)cs3)o2)c1[N+](=O)[O-]` [Example 221], for which the half-maximal inhibitory concentration (IC50) was not above 1 µM. The compound `Cc1ccc([N+](=O)[O-])c(C(=O)NCc2nc(-c3ccc(F)cc3)c(-c3nc(C(=O)NC(C)C)cs3)o2)c1` [Example 222] showed a concentration for half-maximal inhibition (IC50) not above 1 µM. In turn, `Cc1c(C(=O)NCc2nc(-c3ccc(F)cc3)c(-c3nc(C(=O)NC(C)C)cs3)o2)cccc1[N+](=O)[O-]` [Example 223] gave a 50% inhibitory concentration (IC50) of more than 1 µM. Compound `COc1ccc(OC)c(C(=O)NCc2nc(-c3ccc(F)cc3)c(-c3nc(C(=O)NC(C)C)cs3)o2)c1` [Example 224] returned an IC50 of more than 1 µM. The compound `COc1ccc(C(=O)NCc2nc(-c3ccc(F)cc3)c(-c3nc(C(=O)NC(C)C)cs3)o2)c(OC)c1` [Example 225] registered an IC50 of more than 1 µM. The compound `COc1cccc(OC)c1C(=O)NCc1nc(-c2ccc(F)cc2)c(-c2nc(C(=O)NC(C)C)cs2)o1` [Example 226] showed a half-maximal inhibitory concentration (IC50) not above 1 µM.

As for `COc1cc(OC)cc(C(=O)NCc2nc(-c3ccc(F)cc3)c(-c3nc(C(=O)NC(C)C)cs3)o2)c1` [Example 227], the 50% inhibitory concentration (IC50) is more than 1 µM. For `COc1cccc(C(=O)NCc2nc(-c3ccc(F)cc3)c(-c3nc(C(=O)NC(C)C)cs3)o2)c1OC` [Example 228], the IC50 is more than 1 µM. Regarding `Cc1ccc(SCC(=O)NCc2nc(-c3ccc(F)cc3)c(-c3nc(C(=O)NC(C)C)cs3)o2)cc1` [Example 229], the IC50 was more than 1 µM. As to `CC(C)NC(=O)c1csc(-c2oc(CNC(=O)/C=C/c3ccc(Cl)cc3)nc2-c2ccc(F)cc2)n1` [Example 230], the IC50 was not above 1 µM. Turning to `CC(C)NC(=O)c1csc(-c2oc(CNC(=O)/C=C/c3ccccc3Cl)nc2-c2ccc(F)cc2)n1` [Example 231], the IC50 is more than 1 µM. As to `CC(C)NC(=O)c1csc(-c2oc(CNC(=O)c3ccc([N+](=O)[O-])c(O)c3)nc2-c2ccc(F)cc2)n1` [Example 232], the IC50 was more than 1 µM. Turning to `CC(C)NC(=O)c1csc(-c2oc(CNC(=O)c3cc(O)ccc3[N+](=O)[O-])nc2-c2ccc(F)cc2)n1` [Example 233], the concentration for half-maximal inhibition (IC50) is not above 1 µM. `CC(C)NC(=O)c1csc(-c2oc(CNC(=O)c3cc([N+](=O)[O-])ccc3O)nc2-c2ccc(F)cc2)n1` [Example 234] yielded a half-maximal inhibitory concentration (IC50) not above 1 µM. The compound `CC(C)NC(=O)c1csc(-c2oc(CNC(=O)c3cc([N+](=O)[O-])ccc3F)nc2-c2ccc(F)cc2)n1` [Example 235] gave a concentration for half-maximal inhibition (IC50) of more than 1 µM. `CC(C)NC(=O)c1csc(-c2oc(CNC(=O)c3cc(F)ccc3[N+](=O)[O-])nc2-c2ccc(F)cc2)n1` [Example 236]: the half-maximal inhibitory concentration (IC50) was not above 1 µM. Consider `CC(C)NC(=O)c1csc(-c2oc(CNC(=O)c3ccc(F)c([N+](=O)[O-])c3)nc2-c2ccc(F)cc2)n1` [Example 237], for which the IC50 is not above 1 µM. Compound `COc1ccc(Cl)cc1C(=O)NCc1nc(-c2ccc(F)cc2)c(-c2nc(C(=O)NC(C)C)cs2)o1` [Example 238] registered a half-maximal inhibitory concentration (IC50) of more than 1 µM. In the case of `COc1cc(Cl)ccc1C(=O)NCc1nc(-c2ccc(F)cc2)c(-c2nc(C(=O)NC(C)C)cs2)o1` [Example 239], the 50% inhibitory concentration (IC50) is more than 1 µM. As for `CC(C)NC(=O)c1csc(-c2oc(CNC(=O)Cc3ccc(O)c(Cl)c3)nc2-c2ccc(F)cc2)n1` [Example 240], the figure is not above 1 µM; as for `COc1cc(C(=O)NCc2nc(-c3ccc(F)cc3)c(-c3nc(C(=O)NC(C)C)cs3)o2)cc(Cl)n1` [Example 241], more than 1 µM.

Compound `CC(C)NC(=O)c1csc(-c2oc(CNC(=O)c3ccc4cc(O)ccc4c3)nc2-c2ccc(F)cc2)n1` [Example 242] came in with a half-maximal inhibitory concentration (IC50) not above 1 µM. Compound `CC(C)NC(=O)c1csc(-c2oc(CNC(=O)c3c(O)ccc4ccccc34)nc2-c2ccc(F)cc2)n1` [Example 243] yielded an IC50 of more than 1 µM. For `CC(C)NC(=O)c1csc(-c2oc(CNC(=O)c3cc4ccccc4cc3O)nc2-c2ccc(F)cc2)n1` [Example 244], the IC50 was more than 1 µM. As for `CC(C)NC(=O)c1csc(-c2oc(CNC(=O)c3ccc4ccccc4c3O)nc2-c2ccc(F)cc2)n1` [Example 245], the figure is more than 1 µM; as for `CC(C)NC(=O)c1csc(-c2oc(CNC(=O)c3ccc4cccc(O)c4n3)nc2-c2ccc(F)cc2)n1` [Example 246], not above 1 µM. Compound `CC(C)NC(=O)c1csc(-c2oc(CNC(=O)C(C)NC(=O)OC(C)(C)C)nc2-c2ccc(F)cc2)n1` (stereo not drawn) [Example 247] came in with an IC50 of more than 1 µM. For the compound `CC(C)NC(=O)c1csc(-c2oc(CNC(=O)C(C)NC(=O)OC(C)(C)C)nc2-c2ccc(F)cc2)n1` (stereo not drawn) [Example 248], the half-inhibitory concentration (IC50) was more than 1 µM. The compound `CC(C)NC(=O)c1csc(-c2oc(CNC(=O)c3ccccc3C(F)(F)F)nc2-c2ccc(F)cc2)n1` [Example 249] showed an IC50 not above 1 µM.

The term IC50 denotes the midpoint of a concentration-inhibition curve. A low value points to inhibition by little substance.
